These compounds were tested on KRas G12D-mediated phosphorylation of ERK (assay: Inhibition of KRas G12D-mediated phosphorylation of ERK in AGS cells). Conditions: Homo sapiens; AGS cells expressing G12D, 3 hours, phospho-ERK normalized to GAPDH.
Type: cell-based
Outline: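 Fixed, methanol-permeabilized; phospho-ERK (Thr202/Tyr204) by in-cell immunofluorescence normalized to GAPDH. Percent of DMSO control, IC50 by 4-parameter fit.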

Compound | IC50
Nc1ccc(CCOc2nc(N3C[C@H]4CC[C@@H](C3)N4)c3cnc(-c4cccc5cccc(Cl)c45)c(F)c3n2)cn1 [Example 141, 5-(2-((4-((1R,5S)-3,8-diazabicyclo[3.2.1]octan-3-yl)-7-(8-chloronaphthalen-1-yl)-8-fluoropyrido[4,3-d]pyrimidin-2-yl)oxy)ethyl)pyridin-2-amine] | > 16.7 µM
CN1C[C@H](C(F)(F)F)C[C@H]1COc1nc(N2C[C@H]3CC[C@@H](C2)N3)c2cnc(-c3cc(O)cc4ccccc34)c(F)c2n1 [Example 28, 4-(4-((1R,5S)-3,8-diazabicyclo[3.2.1]octan-3-yl)-8-fluoro-2-(((2S,4R)-1-methyl-4-(trifluoromethyl)pyrrolidin-2-yl)methoxy)pyrido[4,3-d]pyrimidin-7-yl)naphthalen-2-ol] | 11.7 µM
Oc1cc(-c2ncc3c(N4C[C@H]5CC[C@@H](C4)N5)nc(OC[C@@H]4CCCN4Cc4ccccc4)nc3c2F)c2ccccc2c1 [Example 12, 4-(2-(((S)-1-benzylpyrrolidin-2-yl)methoxy)-4-((1R,5S)-3,8-diazabicyclo[3.2.1]octan-3-yl)-8-fluoropyrido[4,3-d]pyrimidin-7-yl)naphthalen-2-ol] | 4.91 µM
COC[C@H]1CC[C@@]2(COc3nc(N4CC5CCC(C4)N5)c4cnc(-c5cc(O)cc6ccccc56)c(F)c4n3)CCCN12 (stereo in doubt) [Example 389, 4-(4-((1R,5S)-3,8-diazabicyclo[3.2.1]octan-3-yl)-8-fluoro-2-((3-(methoxymethyl)tetrahydro-1H-pyrrolizin-7a(5H)-yl)methoxy)pyrido[4,3-d]pyrimidin-7-yl)naphthalen-2-ol] | 0.781 µM
CNC(=O)O[C@@H]1CN2CCC[C@]2(COc2nc(N3C[C@H]4CC[C@@H](C3)N4)c3cnc(-c4cccc5cccc(Cl)c45)c(F)c3n2)C1 [Example 435, (2S,7aR)-7a-(((4-((1R,5S)-3,8-diazabicyclo[3.2.1]octan-3-yl)-7-(8-chloronaphthalen-1-yl)-8-fluoropyrido[4,3-d]pyrimidin-2-yl)oxy)methyl)hexahydro-1H-pyrrolizin-2-yl methylcarbamate] | 1.82 µM
CCCc1cccc2cccc(-c3ncc4c(N5C[C@H]6CC[C@@H](C5)N6)nc(OCC56CCCN5CCC6)nc4c3F)c12 [Example 254, 4-((1R,5S)-3,8-diazabicyclo[3.2.1]octan-3-yl)-8-fluoro-2-((hexahydro-1H-pyrrolizin-7a-yl)methoxy)-7-(8-propylnaphthalen-1-yl)pyrido[4,3-d]pyrimidine] | 2.43 µM
CN1CC[C@@H](COc2nc(N3C[C@H]4CC[C@@H](C3)N4)c3cnc(-c4cccc5cccc(Cl)c45)c(F)c3n2)C1 [Example 356, 4-((1R,5S)-3,8-diazabicyclo[3.2.1]octan-3-yl)-7-(8-chloronaphthalen-1-yl)-8-fluoro-2-(((R)-1-methylpyrrolidin-3-yl)methoxy)pyrido[4,3-d]pyrimidine] | 11.9 µM
Fc1c(-c2cccc(Cl)c2C(F)(F)F)ncc2c(N3C[C@H]4CC[C@@H](C3)N4)nc(OCC34CCCN3CCC4)nc12 [Example 328, 4-((1R,5S)-3,8-diazabicyclo[3.2.1]octan-3-yl)-7-(3-chloro-2-(trifluoromethyl)phenyl)-8-fluoro-2-((tetrahydro-1H-pyrrolizin-7a(5H)-yl)methoxy)pyrido[4,3-d]pyrimidine] | 0.897 µM
Fc1c(-c2ccccc2C2CC2)ncc2c(N3C[C@H]4CC[C@@H](C3)N4)nc(OCC34CCCN3CCC4)nc12 [Example 297, 4-((1R,5S)-3,8-diazabicyclo[3.2.1]octan-3-yl)-7-(2-cyclopropylphenyl)-8-fluoro-2-((hexahydro-1H-pyrrolizin-7a-yl)methoxy)pyrido[4,3-d]pyrimidine] | 6.56 µM
Fc1c(-c2cccc3cccc(C(F)(F)F)c23)ncc2c(N3C[C@H]4CC[C@@H](C3)N4)nc(OC[C@@]34CCCN3C[C@H](F)C4)nc12 [Example 419, 4-((1R,5S)-3,8-diazabicyclo[3.2.1]octan-3-yl)-8-fluoro-2-(((2R,7aS)-2-fluorotetrahydro-1H-pyrrolizin-7a(5H)-yl)methoxy)-7-(8-(trifluoromethyl)naphthalen-1-yl)pyrido[4,3-d]pyrimidine] | 2.78 µM
CO[C@H]1CN[C@H](COc2nc(N3C[C@H]4CC[C@@H](C3)N4)c3cnc(-c4cccc5cccc(Cl)c45)c(F)c3n2)C1 [Example 351] | > 16.7 µM
Oc1cc(-c2ncc3c(N4C[C@H]5CC[C@@H](C4)N5)nc(OC4CCOCC4)nc3c2F)c2ccccc2c1 [Example 72, 4-(4-((1R,5S)-3,8-diazabicyclo[3.2.1]octan-3-yl)-8-fluoro-2-((tetrahydro-2H-pyran-4-yl)oxy)pyrido[4,3-d]pyrimidin-7-yl)naphthalen-2-ol] | 7.26 µM
CCc1cccc2cc(O)cc(-c3ncc4c(N5C[C@H]6CC[C@@H](C5)N6)nc(OC[C@@]56CCCN5C[C@H](F)C6)nc4c3F)c12 [Example 259, 4-(4-((1R,5S)-3,8-diazabicyclo[3.2.1]octan-3-yl)-8-fluoro-2-(((2R,7aS)-2-fluorotetrahydro-1H-pyrrolizin-7a(5H)-yl)methoxy)pyrido[4,3-d]pyrimidin-7-yl)-5-ethylnaphthalen-2-ol] | 0.0039 µM
Cn1nccc1COc1nc(N2C[C@H]3CC[C@@H](C2)N3)c2cnc(-c3cc(O)cc4ccccc34)c(F)c2n1 [Example 5, 4-(4-((1R,5S)-3,8-diazabicyclo[3.2.1]octan-3-yl)-8-fluoro-2-((1-methyl-1H-pyrazol-5-yl)methoxy)pyrido[4,3-d]pyrimidin-7-yl)naphthalen-2-ol] | 8.19 µM
Oc1cc(-c2ncc3c(N4C[C@H]5CC[C@@H](C4)N5)nc(OCC45CCCN4CCC5)nc3c2F)c2c(F)cccc2c1 [Example 367, 4-(4-((1R,5S)-3,8-diazabicyclo[3.2.1]octan-3-yl)-8-fluoro-2-((tetrahydro-1H-pyrrolizin-7a(5H)-yl)methoxy)pyrido[4,3-d]pyrimidin-7-yl)-5-fluoronaphthalen-2-ol tris(2,2,2-trifluoroacetate)] | 0.112 µM
Fc1c(-c2cccc3cccc(F)c23)ncc2c(N3C[C@H]4CC[C@@H](C3)N4)nc(OCC34CCCN3CCC4)nc12 [Example 234, 4-((1R,5S)-3,8-diazabicyclo[3.2.1]octan-3-yl)-8-fluoro-7-(8-fluoronaphthalen-1-yl)-2-((tetrahydro-1H-pyrrolizin-7a(5H)-yl)methoxy)pyrido[4,3-d]pyrimidine] | 0.409 µM
Cc1c(Cl)cccc1-c1ncc2c(N3C[C@H]4CC[C@@H](C3)N4)nc(OCC34CCCN3CCC4)nc2c1F [Example 274, 4-((1R,5S)-3,8-diazabicyclo[3.2.1]octan-3-yl)-7-(3-chloro-2-methylphenyl)-8-fluoro-2-((hexahydro-1H-pyrrolizin-7a-yl)methoxy)pyrido[4,3-d]pyrimidine] | 4.71 µM
OCC(CO)COc1nc(N2C[C@H]3CC[C@@H](C2)N3)c2cnc(-c3cccc4cccc(Cl)c34)c(F)c2n1 [Example 35, 2-(((4-((1R,5S)-3,8-diazabicyclo[3.2.1]octan-3-yl)-7-(8-chloronaphthalen-1-yl)-8-fluoropyrido[4,3-d]pyrimidin-2-yl)oxy)methyl)propane-1,3-diol] | 11.3 µM
Cc1ccc2[nH]ncc2c1-c1ncc2c(N3C[C@H]4CC[C@@H](C3)N4)nc(OCC34CCCN3CCC4)nc2c1F [Example 332, 4-((1R,5S)-3,8-diazabicyclo[3.2.1]octan-3-yl)-8-fluoro-7-(5-methyl-1H-indazol-4-yl)-2-((tetrahydro-1H-pyrrolizin-7a(5H)-yl)methoxy)pyrido[4,3-d]pyrimidine] | > 16.7 µM
Fc1c(-c2cccc3cccc(Cl)c23)ncc2c(N3CC4CCC(C3)N4)nc(OC[C@@]34CCCN3C[C@H](F)C4)nc12 (stereo in doubt) [Example 134, 4-((1R,5S)-3,8-diazabicyclo[3.2.1]octan-3-yl)-7-(8-chloronaphthalen-1-yl)-8-fluoro-2-((2-fluorotetrahydro-1H-pyrrolizin-7a(5H)-yl)methoxy)pyrido[4,3-d]pyrimidine] | 0.895 µM
CC(=O)N1CCC(Oc2nc(N3C[C@H]4CC[C@@H](C3)N4)c3cnc(-c4cc(O)cc5ccccc45)c(F)c3n2)CC1 [Example 78, 1-(4-((4-((1R,5S)-3,8-diazabicyclo[3.2.1]octan-3-yl)-8-fluoro-7-(3-hydroxynaphthalen-1-yl)pyrido[4,3-d]pyrimidin-2-yl)oxy)piperidin-1-yl)ethan-1-one] | > 16.7 µM
Oc1cc(-c2ncc3c(N4C[C@H]5CC[C@@H](C4)N5)nc(OC[C@@]45CCCN4C[C@H](F)C5)nc3c2F)c2c(F)c(F)ccc2c1 [Example 246, 4-(4-((1R,5S)-3,8-diazabicyclo[3.2.1]octan-3-yl)-8-fluoro-2-(((2R,7aS)-2-fluorohexahydro-1H-pyrrolizin-7a-yl)methoxy)pyrido[4,3-d]pyrimidin-7-yl)-5,6-difluoronaphthalen-2-ol] | 0.001 µM
Fc1c(-c2cccc3cccc(CC(F)F)c23)ncc2c(N3C[C@H]4CC[C@@H](C3)N4)nc(OCC34CCCN3CCC4)nc12 [Example 247, 4-((1R,5S)-3,8-diazabicyclo[3.2.1]octan-3-yl)-7-(8-(2,2-difluoroethyl)naphthalen-1-yl)-8-fluoro-2-((hexahydro-1H-pyrrolizin-7a-yl)methoxy)pyrido[4,3-d]pyrimidine] | 4.31 µM
C#Cc1c(F)ccc2cccc(-c3ncc4c(N5C[C@H]6CC[C@@H](C5)N6)nc(OC[C@@]56CCCN5C[C@H](F)C6)nc4c3F)c12 [Example 281, 4-((1R,5S)-3,8-diazabicyclo[3.2.1]octan-3-yl)-7-(8-ethynyl-7-fluoronaphthalen-1-yl)-8-fluoro-2-(((2R,7aS)-2-fluorohexahydro-1H-pyrrolizin-7a-yl)methoxy)pyrido[4,3-d]pyrimidine] | 0.0978 µM
COCCO[C@@H]1C[C@@H](COc2nc(N3C[C@H]4CC[C@@H](C3)N4)c3cnc(-c4cccc5cccc(Cl)c45)c(F)c3n2)N(C)C1 [Example 202, 4-((1R,5S)-3,8-diazabicyclo[3.2.1]octan-3-yl)-7-(8-chloronaphthalen-1-yl)-8-fluoro-2-(((2S,4R)-4-(2-methoxyethoxy)-1-methylpyrrolidin-2-yl)methoxy)pyrido[4,3-d]pyrimidine] | 10.2 µM
